Reference: ChEMBL document CHEMBL3792297, “Studies on phenothiazines: New microtubule-interacting compounds with phenothiazine A-ring as potent antineoplastic agents” (Bioorg Med Chem, 2016)

How the values were obtained:
U-251 [1] = assay: Growth inhibition of human U251 cells after 48 hrs by SRB assay; format: functional; settings: U-251, 48 h
[2] = Growth inhibition of human HCC2998 cells after 48 hrs by SRB assay; format: functional; settings: HCC 2998, 48 h
[3] = Growth inhibition of human OVCAR3 cells at 10 uM after 48 hrs by SRB assay relative to control; format: functional; settings: OVCAR-3, 48 h, read-out: GI
[4] = Growth inhibition of human SKOV3 cells after 48 hrs by SRB assay; format: functional; settings: SK-OV-3, 48 h
[5] = Growth inhibition of human NCI-ADR-RES cells after 48 hrs by SRB assay; format: functional
[6] = Growth inhibition of human SF539 cells at 10 uM after 48 hrs by SRB assay relative to control; format: functional; settings: SF-539, 48 h, read-out: GI
[7] = Growth inhibition of human OVCAR5 cells at 10 uM after 48 hrs by SRB assay relative to control; format: functional; settings: OVCAR-5, 48 h, read-out: GI
[8] = Growth inhibition of human HCT15 cells after 48 hrs by SRB assay; format: functional; settings: HCT-15, 48 h
[9] = Growth inhibition of human HCT15 cells at 10 uM after 48 hrs by SRB assay relative to control; format: functional; settings: HCT-15, 48 h, read-out: GI
M14 [10] = assay: Growth inhibition of human M14 cells after 48 hrs by SRB assay; format: functional; settings: M14, 48 h
ACHN [11] = assay: Growth inhibition of human ACHN cells at 10 uM after 48 hrs by SRB assay relative to control; format: functional; settings: read-out: GI
[12] = Growth inhibition of human HOP62 cells at 10 uM after 48 hrs by SRB assay relative to control; format: functional; settings: HOP-62, 48 h, read-out: GI
KM12 [13] = assay: Growth inhibition of human KM12 cells after 48 hrs by SRB assay; format: functional; settings: KM12, 48 h
Malme-3M [14] = assay: Growth inhibition of human MALME-3M cells at 10 uM after 48 hrs by SRB assay relative to control; format: functional; settings: read-out: GI
K562 = assay: Growth inhibition of human K562 cells at 10 uM after 48 hrs by SRB assay relative to control; format: functional; settings: K562, 48 h, read-out: GI
ACHN [15] = assay: Growth inhibition of human ACHN cells after 48 hrs by SRB assay; format: functional
[16] = Growth inhibition of human SNB75 cells after 48 hrs by SRB assay; format: functional; settings: SNB-75, 48 h
[17] = Growth inhibition of human MOLT4 cells at 10 uM after 48 hrs by SRB assay relative to control; format: functional; settings: MOLT-4, 48 h, read-out: GI
[18] = Growth inhibition of human NCI-ADR-RES cells at 10 uM after 48 hrs by SRB assay relative to control; format: functional; settings: read-out: GI
[19] = Growth inhibition of human HOP92 cells at 10 uM after 48 hrs by SRB assay relative to control; format: functional; settings: HOP-92, 48 h, read-out: GI
[20] = Growth inhibition of human UACC62 cells after 48 hrs by SRB assay; format: functional; settings: UACC-62, 48 h
NCI-H23 [21] = assay: Growth inhibition of human NCI-H23 cells at 10 uM after 48 hrs by SRB assay relative to control; format: functional; settings: NCI-H23, 48 h, read-out: GI
[22] = Inhibition of sheep brain tubulin polymerization by DAPI staining-based fluorimetric method; set-up: species or system Ovis aries
A549 = assay: Growth inhibition of human A549 cells at 10 uM after 48 hrs by SRB assay relative to control; format: functional; settings: A549, 48 h, read-out: GI
[23] = Growth inhibition of human HL-60(TB) cells after 48 hrs by SRB assay; format: functional; settings: HL-60, 48 h
SK-MEL-5 = assay: Growth inhibition of human SK-MEL-5 cells at 10 uM after 48 hrs by SRB assay relative to control; format: functional; settings: SK-MEL-5, 48 h, read-out: GI
T47D = assay: Growth inhibition of human T47D cells at 10 uM after 48 hrs by SRB assay relative to control; format: functional; settings: read-out: GI
SN12C = assay: Growth inhibition of human SN12C cells after 48 hrs by SRB assay; format: functional
U-251 [24] = assay: Growth inhibition of human U251 cells at 10 uM after 48 hrs by SRB assay relative to control; format: functional; settings: U-251, 48 h, read-out: GI
KM12 [25] = assay: Growth inhibition of human KM12 cells at 10 uM after 48 hrs by SRB assay relative to control; format: functional; settings: KM12, 48 h, read-out: GI
[26] = Growth inhibition of human SW620 cells at 10 uM after 48 hrs by SRB assay relative to control; format: functional; settings: SW-620, 48 h, read-out: GI
Malme-3M [27] = assay: Growth inhibition of human MALME-3M cells after 48 hrs by SRB assay; format: functional
[28] = Growth inhibition of human SF295 cells after 48 hrs by SRB assay; format: functional; settings: SF-295, 48 h
[29] = Growth inhibition of human BT549 cells at 10 uM after 48 hrs by SRB assay relative to control; format: functional; settings: BT-549, 48 h, read-out: GI
SR = assay: Growth inhibition of human SR cells after 48 hrs by SRB assay; format: functional
[30] = Growth inhibition of human HOP92 cells after 48 hrs by SRB assay; format: functional; settings: HOP-92, 48 h
CCRF-CEM = assay: Growth inhibition of human CCRF-CEM cells after 48 hrs by SRB assay; format: functional
NCI-H522 = assay: Growth inhibition of human NCI-H522 cells after 48 hrs by SRB assay; format: functional; settings: NCI-H522, 48 h
NCI-H23 [31] = assay: Growth inhibition of human NCI-H23 cells after 48 hrs by SRB assay; format: functional; settings: NCI-H23, 48 h
786-0 = assay: Growth inhibition of human 786-0 cells after 48 hrs by SRB assay; format: functional; settings: 786-0, 48 h
A498 = assay: Growth inhibition of human A498 cells after 48 hrs by SRB assay; format: functional; settings: A498, 48 h
[32] = Growth inhibition of human HCT116 cells after 48 hrs by SRB assay; format: functional; settings: HCT-116, 48 h
HT-29 = assay: Growth inhibition of human HT-29 cells after 48 hrs by SRB assay; format: functional; settings: HT-29, 48 h
[33] = Growth inhibition of human SNB19 cells at 10 uM after 48 hrs by SRB assay relative to control; format: functional; settings: SNB-19, 48 h, read-out: GI
[34] = Growth inhibition of human OVCAR5 cells after 48 hrs by SRB assay; format: functional; settings: OVCAR-5, 48 h
M14 [35] = assay: Growth inhibition of human M14 cells at 10 uM after 48 hrs by SRB assay relative to control; format: functional; settings: M14, 48 h, read-out: GI
[36] = Growth inhibition of human HCC2998 cells at 10 uM after 48 hrs by SRB assay relative to control; format: functional; settings: HCC 2998, 48 h, read-out: GI
[37] = Growth inhibition of human LOXIMVI cells after 48 hrs by SRB assay; format: functional; settings: LOX IMVI

## O=C(c1ccc2c(c1)Sc1ccccc1N2)c1c[nH]c2ccccc12
U-251 [1]
  GI50: 413 nM
[2]
  GI50: 876 nM
[3]
  inhibition of growth at 10 µM: 100%
[4]
  GI50: 380 nM
[5]
  GI50: 317 nM
[6]
  inhibition of growth at 10 µM: 100%
[7]
  inhibition of growth at 10 µM: 60%
[8]
  GI50: 408 nM
[9]
  inhibition of growth at 10 µM: 68%
M14 [10]
  GI50: 319 nM
ACHN [11]
  inhibition of growth at 10 µM: 45%
[12]
  inhibition of growth at 10 µM: 61%
KM12 [13]
  GI50: 311 nM
Malme-3M [14]
  inhibition of growth at 10 µM: 49%
K562
  inhibition of growth at 10 µM: 81%
ACHN [15]
  GI50: 671 nM
[16]
  GI50: 249 nM
[17]
  inhibition of growth at 10 µM: 73%
[18]
  inhibition of growth at 10 µM: 100%
[19]
  inhibition of growth at 10 µM: 28%
[20]
  GI50: 356 nM
NCI-H23 [21]
  inhibition of growth at 10 µM: 68%
[22]
  IC50: 38.9 µM
A549
  inhibition of growth at 10 µM: 77%
[23]
  GI50: 398 nM
SK-MEL-5
  inhibition of growth at 10 µM: 89%
T47D
  inhibition of growth at 10 µM: 72%
SN12C
  GI50: 708 nM
U-251 [24]
  inhibition of growth at 10 µM: 83%
KM12 [25]
  inhibition of growth at 10 µM: 87%
[26]
  inhibition of growth at 10 µM: 71%
Malme-3M [27]
  GI50: 532 nM
[28]
  GI50: 314 nM
[29]
  inhibition of growth at 10 µM: 69%
SR
  GI50: 173 nM
[30]
  GI50: 585 nM
CCRF-CEM
  GI50: 328 nM
NCI-H522
  GI50: 338 nM
NCI-H23 [31]
  GI50: 389 nM
786-0
  GI50: 672 nM
A498
  GI50: 172 nM
[32]
  GI50: 378 nM
HT-29
  GI50: 358 nM
[33]
  inhibition of growth at 10 µM: 41%
[34]
  GI50: 0.565 µM
M14 [35]
  inhibition of growth at 10 µM: 86%
[36]
  inhibition of growth at 10 µM: 64%

## COc1ccc(C(=O)N2c3ccccc3Sc3ccccc32)c(OC)c1
U-251 [1]
  GI50: 615 nM
[2]
  GI50: 1490 nM
[3]
  inhibition of growth at 10 µM: 100%
[4]
  GI50: 715 nM
[5]
  GI50: 400 nM
[6]
  inhibition of growth at 10 µM: 100%
[7]
  inhibition of growth at 10 µM: 52%
[8]
  GI50: 464 nM
[9]
  inhibition of growth at 10 µM: 81%
M14 [10]
  GI50: 359 nM
ACHN [11]
  inhibition of growth at 10 µM: 57%
[12]
  inhibition of growth at 10 µM: 52%
KM12 [13]
  GI50: 438 nM
Malme-3M [14]
  inhibition of growth at 10 µM: 33%
K562
  inhibition of growth at 10 µM: 89%
ACHN [15]
  GI50: 726 nM
[16]
  GI50: 209 nM
[17]
  inhibition of growth at 10 µM: 88%
[18]
  inhibition of growth at 10 µM: 100%
[19]
  inhibition of growth at 10 µM: 69%
[20]
  GI50: 321 nM
NCI-H23 [21]
  inhibition of growth at 10 µM: 62%
A549
  inhibition of growth at 10 µM: 69%
[23]
  GI50: 297 nM
SK-MEL-5
  inhibition of growth at 10 µM: 81%
T47D
  inhibition of growth at 10 µM: 59%
SN12C
  GI50: 586 nM
U-251 [24]
  inhibition of growth at 10 µM: 75%
KM12 [25]
  inhibition of growth at 10 µM: 86%
[26]
  inhibition of growth at 10 µM: 75%
Malme-3M [27]
  GI50: 416 nM
[28]
  GI50: 484 nM
[29]
  inhibition of growth at 10 µM: 83%
SR
  GI50: 562 nM
[30]
  GI50: 374 nM
CCRF-CEM
  GI50: 394 nM
NCI-H522
  GI50: 343 nM
NCI-H23 [31]
  GI50: 776 nM
786-0
  GI50: 480 nM
A498
  GI50: 307 nM
[32]
  GI50: 452 nM
HT-29
  GI50: 385 nM
[33]
  inhibition of growth at 10 µM: 68%
[34]
  GI50: 10 µM
M14 [35]
  inhibition of growth at 10 µM: 100%
[37]
  GI50: 601 nM
[36]
  inhibition of growth at 10 µM: 87%
